The results in this text go back to patent US20230201221A1, “USE OF TERPENOIDS IN THE TREATMENT OR PREVENTION OF FIBROTIC DISEASES” (ARJIL BIOTECH HOLDING COMPANY LIMITED, priority 2020, published 2023).

What all share (assay type): in vivo
The subject of assay [1] is C57BL/6 mice. Nature of the assay: Cisplatin-induced renal injury in mice: serum CRE and BUN. As to conditions: extracts at 1000 mg/kg; compared to cisplatin-stimulated group, p<0.001. Here is the method: Determination of biochemical parameters Serum creatinine and serum urea are assessed using colorimetric kits according to manufacturer's instructions. Kits of the former markers are purchased from (HUMAN Diagnostics Worldwide, Magdeburg, Germany) with a chemical analyzer (Roche Diagnostics, Cobas Mira Plus, Rotkreuz, Switzerland).
(§1) Seven-to-eight-week-old male C57BL/6 mice are obtained from the BioLASCO Taiwan Co., Ltd. (Taipei, Taiwan). The animals are housed in Plexiglas cages at a constant temperature of 22±1° C. and a relative humidity of 55±5% on a 12 h dark-light cycle for at least 2 weeks before the experiment. Animals are provided food and water ad libitum. All experimental procedures are performed according to the guidelines of the Institutional Animal Ethics Committee, and the protocol is approved by the Committee for the Purpose of Control and Supervision of Experiments on Animals.
Renal fibrosis is induced via multiple injections of low-dose cisplatin. Intraperitoneal injections of cisplatin (5 mg/kg/injection; P4394, Sigma-Aldrich, St Louis, Mo.) are performed at 0, 1, and 3 weeks, for a total of 3 injections. Mice are sacrificed at 6 weeks after the first dose of cisplatin (n=6). To analyze the effects of samples, mice are given daily intraperitoneal injections for 7 days, starting from 4 weeks after first dose of cisplatin, and sacrificed at […] (n=6).

Assay [2] has as its system C57BL/6 mice. Nature of the assay: Cisplatin-induced renal injury in mice: kidney histopathology (H&E). As to conditions: extract at 1000 mg/kg; cisplatin-stimulated mice.
Text: Kidney histopathology The anterior portion of the […] from each mouse is fixed in 10% formaldehyde phosphate buffer, embedded in paraffin, cut into 5 μm sections, and then treated with an hematoxylin and eosin (H&E) stain for histological examination under the light microscopy (Nikon, ECLIPSE, TS100, Tokyo, Japan). Images are captured with a digital camera (NIS-Elements D 2.30, SP4, Build 387) at an original magnification of 400×.
as §1
Renal fibrosis is induced via multiple injections of low-dose cisplatin. Intraperitoneal injections of cisplatin (5 mg/kg/injection; P4394, Sigma-Aldrich, St Louis, Mo.) are performed at 0, 1, and 3 weeks, for a total of 3 injections. Mice are sacrificed at 6 weeks after the first dose of cisplatin (n=6). […]

Assay [3] relates to SD rats. Kind of assay: CCl4-induced chronic liver fibrosis in rat. Here is the method:
Blood samples are collected at week 0, 2, 4, 6, and 8. The animals are sacrificed at the end of the 8-week for histopathological examinations. FIGS. 7A, 7B, 7C depict delta weight, liver weight, and liver/body-weight ratio, respectively.
The level of clinical biochemistry such as aspartate aminotransferase (AST), alanine aminotransferase (ALT), is evaluated to determine the enzymatic activities of the livers of the control groups and the experimental groups (shown in FIGS. 8A-8C).

In assay [4] the test system is ICR mice. Kind of assay: Bleomycin-induced pulmonary fibrosis in mice: body weight, lung weight, lung index. The protocol: Specific pathogen-free ICR mice (males) (body weights 18-22 g) were purchased from the BioLASCO Taiwan Co., Ltd. (Taipei, Taiwan). The animals were housed in Plexiglas cages at a constant temperature of 22±1° C. and a relative humidity of 55±5% on a 12 h dark-light cycle for at least 2 weeks before the experiment. Animals were provided food and water ad libitum. All experimental procedures were performed according to the guidelines of the Institutional Animal Ethics Committee, and the protocol was approved by the Committee for the Purpose of Control and Supervision of Experiments on Animals.
(§2) Mice were divided into fifth groups with 5 animals per group according to body weight: control group, BLM group, BLM+DEX group (7.5 mg/kg), BLM+ACH dosage group (50 mg/kg), and BLM+ACM dosage group (25 mg/kg), BLM+ACH dosage group (50 mg/kg), and BLM+ACM dosage group (25 mg/kg) BLM+AH dosage group (50 mg/kg), and BLM+AM dosage group (25 mg/kg) BLM+BH dosage group (50 mg/kg), and BLM+BM dosage group (25 mg/kg) BLM+CH dosage group (50 mg/kg), and BLM+CM dosage group (25 mg/kg) BLM+DH dosage group (50 mg/kg), and BLM+DM dosage group (25 mg/kg) BLM+EH dosage group (50 mg/kg), and BLM+EM dosage group (25 mg/kg) BLM. Pulmonary fibrosis (PF) was established in mice via a single intratracheal administration of BLM at 7.5 mg/kg mg/kg body weight. Different doses of samples were intragastrically administered daily for 21 days after BLM injury, and DEX was used as the positive control. Control and model groups received an equal volume of vehicle (0.9% NaCl) using the same schedule and route of administration.
Mouse body weights were recorded daily. Mice were sacrificed on the 21th day using excess chloral hydrate hydrochloride anesthesia. Blood was obtained for ELISA analyses, and whole lungs were removed and weighed. The right lungs were fixed in 10% formalin, dehydrated, and embedded in paraffin. The left lungs were used to determine hydroxyproline. The pulmonary coefficient was calculated using the following equation: lung weight/body weight×100%
1. Group I: control; 2. Group II: mice received single intraperitoneal injection of BLM (7.5 mg/kg BW) 3. Group III: single dose (ACH, 0.5 g/kg) 4. Group IV: Single dose (ACM, 1.0 g/kg) 5. […] Group VII: purified AR101-DS2 (50 mg/kg) 8. Group VIII: purified AR101-DS2 (25 mg/kg) 7. Group VII: purified AR101-DS4 (50 mg/kg) 8. Group VIII: purified AR101-DS4 (25 mg/kg) 7. […] Group VII: purified ARH013-RA1 (50 mg/kg) 8. Group VIII: purified ARH013-RA1 (25 mg/kg)

Assay [5] has as its system MPO. Kind of assay: Bleomycin-induced pulmonary fibrosis in mice: lung myeloperoxidase (MPO) assay. As to conditions: compared with BLM group, p<0.001. Here is the method:
as §2
The pulmonary MPO activity was a reliable index for estimating the infiltration of inflammatory cells in lungs. The lung tissues were homogenized and the MPO levels were detected with the kits according to manufacturer's instruction.

The mark [6] stands for this setting: 25 mg/kg intragastric daily for 21 days after BLM.
[7] abbreviates: 50 mg/kg intragastric daily for 21 days after BLM.

Regarding `C=C1C(=O)O[C@H]2/C=C(\C)CC3C=C(CC/C=C(\C)CC[C@H]12)C(=O)O3` (stereo partly shown) [AR100-DS1, Ovatodiolide], in assay [1], the “renal protection: normalization of serum CRE and BUN” value was “significant renal protection effect”. Besides, in assay [2], the “necrosis and inflammatory infiltrating cells in the kidney tissue (H&E)” value was “significantly improved necrosis and inflammatory infiltrating cells in the kidney tissue”. Also, the “serum AST and ALT level” value in assay [3] (50 mg/kg, W6 and W8, compared with the vehicle group) was “less AST and ALT increases”. The liver appearance result in assay [3] (50 mg/kg, after 8 weeks of CCl4 induction) was “smooth surface without atrophy and sclerosis”. The “overall effect on CCl4-induced liver injury” value in assay [3] (8 weeks of CCl4 induction) is “potential to partially repair CCl4-induced liver injury”. In addition, in assay [4] (setting [6]), the Final body mass is listed as 37.33 ± 0.25 g and the Pulmonary mass turned out to be 0.52 ± 0.02 g. In addition, in assay [4] (setting [7]), the Final body mass is reported as 39.12 ± 0.30 g and the Pulmonary mass turned out to be 0.39 ± 0.01 g. In assay [5], the “lung MPO activity” value was “evidently suppressed the MPO activities”.
